# Laboratory results: patent US8575156B2, “Cyclic inhibitors of 11β-hydroxysteroid dehydrogenase 1” (Vitae Pharmaceuticals, Inc., priority 2007, dated 2013)
# pIC50: −log10 of the molar value.
# Target: 11β-HSD1 (Homo sapiens, UniProt P28845)
# Assay: biochemical
# Conditions: for pIC50: IC50 Range, Biological Test Example 1, microsomes from CHO cells overexpressing human 11β-HSD1; for inhibition at 0.1111 µM: read-out: Average % inhibition at 111.1 nM, Biological Test Example 1, 111.1 nM compound; for inhibition at 0.1 µM: read-out: Average % inhibition at 100 nM, Biological Test Example 1, 100 nM compound
# 11β-HSD1, sequence (P28845 whole entry): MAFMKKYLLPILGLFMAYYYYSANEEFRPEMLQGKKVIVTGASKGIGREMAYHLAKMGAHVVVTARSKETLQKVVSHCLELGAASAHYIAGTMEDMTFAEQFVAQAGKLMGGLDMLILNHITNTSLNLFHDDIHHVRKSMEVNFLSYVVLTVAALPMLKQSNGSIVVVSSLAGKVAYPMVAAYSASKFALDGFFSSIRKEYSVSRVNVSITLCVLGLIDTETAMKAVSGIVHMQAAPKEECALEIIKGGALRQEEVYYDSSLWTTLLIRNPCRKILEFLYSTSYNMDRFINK
SMILES,pIC50,inhibition at 0.1111 µM,inhibition at 0.1 µM
"C[C@@H](c1cccc(OCC(=O)N2CCNCC2)c1)N1CCC(C)(c2ccccc2)OC1=O (mixture of isomers) [EXAMPLE 94, (R/S)-6-methyl-3-((S)-1-(3-(2-oxo-2-(piperazin-1-yl)ethoxy)phenyl)ethyl)-6-phenyl-1,3-oxazinan-2-one]",6.00 to 7.00,16.2%,
C[C@@H](c1cccc(OCC(C)(C)O)c1)N1CCC(C)(c2ccccc2)OC1=O (mixture of isomers) [EXAMPLE 93],6.00 to 7.00,45.3%,
"C[C@@H](c1ccc(-c2ccc(F)cc2F)cc1)N1CC[C@](CC(O)CO)(c2ccc(F)cc2)OC1=O (single isomer, unassigned) [EXAMPLE 52 Isomer 1]",> 7.00,,92.8%
"C[C@@H](c1ccccc1)N1CCC(C)(c2ccccc2)OC1=O (single isomer, unassigned) [EXAMPLE 82 Isomer 1]",> 7.00,87.6%,
"C[C@H](c1ccccc1)N1CCC(C)(c2ccccc2)OC1=O (single isomer, unassigned) [EXAMPLE 83 Isomer 1]",6.00 to 7.00,50.3%,
"COc1cccc([C@H](C)N2CCC(C)(c3ccccc3)OC2=O)c1 (single isomer, unassigned) [EXAMPLE 84 Isomer 1]",> 7.00,74.8%,
"COc1ccc([C@H](C)N2CCC(C)(c3ccccc3)OC2=O)cc1 (single isomer, unassigned) [EXAMPLE 85 Isomer 1]",> 7.00,93.1%,
"Cc1ccccc1C1(C)CCN([C@@H](C)c2ccccc2)C(=O)O1 (single isomer, unassigned) [EXAMPLE 86 Isomer 1]",6.00 to 7.00,43.3%,
"Cc1cccc(C2(C)CCN([C@@H](C)c3ccccc3)C(=O)O2)c1 (single isomer, unassigned) [EXAMPLE 87 Isomer 1]",6.00 to 7.00,13.3%,
"Cc1ccc(C2(C)CCN([C@@H](C)c3ccccc3)C(=O)O2)cc1 (single isomer, unassigned) [EXAMPLE 88 Isomer 1]",6.00 to 7.00,74.4%,
"C=CC[C@]1(c2ccc(F)cc2)CCN([C@@H](C)c2ccccc2)C(=O)O1 (single isomer, unassigned) [EXAMPLE 95 Isomer 1]",> 7.00,91%,
"C[C@@H](c1ccccc1)N1CC[C@@](CCO)(c2ccc(F)cc2)OC1=O (single isomer, unassigned) [EXAMPLE 97 Isomer 1]",6.00 to 7.00,52.8%,
"C[C@@H](c1ccccc1)N1CC[C@](CCO)(c2ccc(F)cc2)OC1=O (single isomer, unassigned) [EXAMPLE 97 Isomer 2]",> 7.00,88.2%,
"C=CC[C@@]1(c2ccc(F)cc2)CCN([C@@H](C)c2ccc(Br)cc2)C(=O)O1 (single isomer, unassigned) [EXAMPLE 110 Isomer 1]",> 7.00,,90.5%
"C=CC[C@]1(c2ccc(F)cc2)CCN([C@@H](C)c2ccc(Br)cc2)C(=O)O1 (single isomer, unassigned) [EXAMPLE 110 Isomer 2]",> 7.00,95%,96.6%
"C=CC[C@@]1(c2ccc(F)cc2)CCN([C@@H](C)c2ccc(-c3ccc(F)cc3F)cc2)C(=O)O1 (single isomer, unassigned) [EXAMPLE 111 Isomer 1]",> 7.00,90.9%,
"C=CC[C@]1(c2ccc(F)cc2)CCN([C@@H](C)c2ccc(-c3ccc(F)cc3F)cc2)C(=O)O1 (single isomer, unassigned) [EXAMPLE 111 Isomer 2]",> 7.00,58.9%,
"C=CC1(c2ccc(F)cc2)CCN([C@@H](C)c2ccccc2)C(=O)O1 (single isomer, unassigned) [EXAMPLE 113 Isomer 1]",> 7.00,83.2%,
"C=CCC1(c2ccc(F)cc2)CCN([C@@H](CC)c2ccc(Br)cc2)C(=O)O1 (single isomer, unassigned) [EXAMPLE 130 Isomer 1]",> 7.00,,92.2%
